≈ marks a conversion by molar mass, not a printed value. Read-outs that look alike come from different tables or passages of the source.
Key:
[1] = tested on: Pseudomonas stutzeri IFO 12695; assay: in vitro antibacterial activity, standard agar dilution method; assay type: cell-based; details: Stutzerimonas stutzeri, IFO12695, aerobic, read-out: minimum inhibitory concentration (MIC)
[2] = tested on: Klebsiella pneumoniae FDA PCI 602; assay: as above; assay type: cell-based; details: FDAPCI602, aerobic, read-out: minimum inhibitory concentration (MIC)
[3] = tested on: Enterococcus faecalis NR 2943; assay: as above; assay type: cell-based; details: NR2943, aerobic, read-out: minimum inhibitory concentration (MIC)
Escherichia coli NR 2630 = assay: as above; assay type: cell-based
[4] = tested on: Proteus rettgeri ATCC 14505; assay: as above; assay type: cell-based; details: Providencia rettgeri, ATCC14505, aerobic, read-out: minimum inhibitory concentration (MIC)
[5] = tested on: Bordetella bronchiseptica ATCC 4617; assay: as above; assay type: cell-based; details: ATCC4617, aerobic, read-out: minimum inhibitory concentration (MIC)
[6] = tested on: Staphylococcus aureus Smith; assay: as above; assay type: cell-based; details: read-out: minimum inhibitory concentration (MIC)
[7] = tested on: Enterobacter aerogenes NR 2945; assay: as above; assay type: cell-based; details: Klebsiella aerogenes, NR2945, aerobic, read-out: minimum inhibitory concentration (MIC)
[8] = tested on: Salmonella typhimurium IFO 12529; assay: as above; assay type: cell-based; details: Salmonella enterica, aerobic, read-out: minimum inhibitory concentration (MIC)
[9] = tested on: Bacillus subtilis PCI 219; assay: as above; assay type: cell-based; details: PCI219, aerobic, read-out: minimum inhibitory concentration (MIC)
[10] = tested on: Pseudomonas aeruginosa A3; assay: as above; assay type: cell-based; details: aerobic, read-out: minimum inhibitory concentration (MIC)
[11] = tested on: Escherichia coli NIHJ JC-2; assay: as above; assay type: cell-based; details: NIHJJC2, aerobic, read-out: minimum inhibitory concentration (MIC)
[12] = tested on: Staphylococcus aureus FDA 209P JC-1; assay: as above; assay type: cell-based; details: FDA209P, read-out: minimum inhibitory concentration (MIC)
[13] = tested on: Citrobacter freundii IFO 12681; assay: as above; assay type: cell-based; details: IFO12681, aerobic, read-out: minimum inhibitory concentration (MIC)
[14] = tested on: Proteus vulgaris OX19 ATCC 6898; assay: as above; assay type: cell-based; details: ATCC6898, aerobic, read-out: minimum inhibitory concentration (MIC)
[15] = tested on: Alcaligenes faecalis IFO 13111; assay: as above; assay type: cell-based; details: IFO13111, aerobic, read-out: minimum inhibitory concentration (MIC)
[16] = tested on: Staphylococcus epidermidis NR 2942; assay: as above; assay type: cell-based; details: NR2942, aerobic, read-out: minimum inhibitory concentration (MIC)
[17] = tested on: Pseudomonas aeruginosa NR 2950; assay: as above; assay type: cell-based; details: NR2950, aerobic, read-out: minimum inhibitory concentration (MIC)
[18] = tested on: Staphylococcus epidermidis IFO 12993; assay: as above; assay type: cell-based; details: IFO12993, aerobic, read-out: minimum inhibitory concentration (MIC)
[19] = tested on: Serratia marcescens IFO 12648; assay: as above; assay type: cell-based; details: IFO12648, aerobic, read-out: minimum inhibitory concentration (MIC)
[20] = acute toxicity by oral administration; details: mouse, in vivo; oral administration, ICR mice; read-out: LD50
From the text: The acute toxicity of these compounds was examined by oral administration in ICR mice.

[21] = tested on: Staphylococcus aureus NR 2855; assay: in vitro antibacterial activity, standard agar dilution method; assay type: cell-based; details: NR2855; Staphylococcus aureus NR 2855; aerobic; agar dilution; read-out: minimum inhibitory concentration (MIC)
[22] = tested on: Enterobacter cloacae NR 2946; assay: as above; assay type: cell-based; details: NR2946, aerobic, read-out: minimum inhibitory concentration (MIC)
[23] = NR2630, Escherichia coli NR 2630, aerobic, agar dilution, read-out: minimum inhibitory concentration (MIC)
[24] = Staphylococcus aureus Smith, aerobic, agar dilution
[25] = Staphylococcus aureus FDA 209P JC-1, aerobic, agar dilution

Compound	MIC [1] [µg/mL]	MIC [2] [µg/mL]	MIC [3] [µg/mL]	MIC [4] [µg/mL]	MIC [5] [µg/mL]	MIC [7] [µg/mL]	MIC [8] [µg/mL]	MIC [9] [µg/mL]	MIC [10] [µg/mL]	MIC [11] [µg/mL]	MIC [13] [µg/mL]	MIC [14] [µg/mL]	MIC [15] [µg/mL]	MIC [16] [µg/mL]	MIC [17] [µg/mL]	MIC [18] [µg/mL]	MIC [19] [µg/mL]	LD50 [20] [mg/kg]	MIC [21] [µg/mL]	MIC [22] [µg/mL]	further results
CN1COc2c(N3CCNCC3)c(F)cc3c(=O)c(C(=O)O)cn1c23 [Example 6, 9-fluoro-3-methyl-7-oxo-10-(1-piperazinyl)-2,3-dihydro-7H-pyrido[3,2,1-ij]-1,3,4-benzoxadiazine-6-carboxylic acid]	0.025 (≈ 0.0718 µM)	0.1 (≈ 0.287 µM)	12.5 (≈ 35.9 µM)	0.1 (≈ 0.287 µM)	6.25 (≈ 17.9 µM)	0.013 (≈ 0.0373 µM)	0.013 (≈ 0.0373 µM)	0.1 (≈ 0.287 µM)	0.1 (≈ 0.287 µM)	0.025 (≈ 0.0718 µM)	0.013 (≈ 0.0373 µM)	0.013 (≈ 0.0373 µM)	3.13 (≈ 8.99 µM)	1.56 (≈ 4.48 µM)	0.78 (≈ 2.24 µM)	1.56 (≈ 4.48 µM)	0.1 (≈ 0.287 µM)	> 2000	3.13 (≈ 8.99 µM)	0.025 (≈ 0.0718 µM)	MIC (Escherichia coli NR 2630; Escherichia coli, NR2630, read-out: minimum inhibitory concentration (MIC)): 0.025 µg/mL (≈ 0.0718 µM); MIC ([6]; Staphylococcus aureus): 0.39 µg/mL (≈ 1.12 µM); MIC ([12]; Staphylococcus aureus): 0.39 µg/mL (≈ 1.12 µM)
CC1CN(c2c(F)cc3c(=O)c(C(=O)O)cn4c3c2OCN4C)CCN1 (stereo not drawn) [Example 7, 9-fluoro-3-methyl-10-(3-methyl-1-piperazinyl)-7-oxo-2,3-dihydro-7H-pyrido[3,2,1-ij]-1,3,4-benzoxadiazine-6-carboxylic acid]	0.05 (≈ 0.138 µM)	0.39 (≈ 1.08 µM)	12.5 (≈ 34.5 µM)	0.78 (≈ 2.15 µM)	3.13 (≈ 8.64 µM)	0.05 (≈ 0.138 µM)	0.05 (≈ 0.138 µM)	0.1 (≈ 0.276 µM)	0.2 (≈ 0.552 µM)	0.1 (≈ 0.276 µM)	0.05 (≈ 0.138 µM)	0.025 (≈ 0.069 µM)	6.25 (≈ 17.2 µM)	0.78 (≈ 2.15 µM)	3.13 (≈ 8.64 µM)	0.78 (≈ 2.15 µM)	0.2 (≈ 0.552 µM)	> 2000	1.56 (≈ 4.31 µM)	0.1 (≈ 0.276 µM)	MIC (Escherichia coli NR 2630; [23]): 0.025 µg/mL (≈ 0.069 µM); MIC [6, 24]: 0.2 µg/mL (≈ 0.552 µM); MIC ([12]; Staphylococcus aureus): 0.39 µg/mL (≈ 1.08 µM)
CNCC1CCN(c2c(F)cc3c(=O)c(C(=O)O)cn4c3c2OCN4C)C1 (stereo not drawn) [Example 17, 9-fluoro-3-methyl-10-[3-[(methylamino)methyl]-1-pyrrolidinyl]-7-oxo-2,3-dihydro-7H-pyrido[3,2,1-ij]-1,3,4-benzoxadiazine-6-carboxylic acid]	0.025 (≈ 0.0664 µM)	0.78 (≈ 2.07 µM)	1.56 (≈ 4.14 µM)	1.56 (≈ 4.14 µM)	6.25 (≈ 16.6 µM)	0.05 (≈ 0.133 µM)	0.05 (≈ 0.133 µM)	0.013 (≈ 0.0345 µM)	0.39 (≈ 1.04 µM)	0.1 (≈ 0.266 µM)	0.2 (≈ 0.531 µM)	0.025 (≈ 0.0664 µM)	6.25 (≈ 16.6 µM)	0.1 (≈ 0.266 µM)	6.25 (≈ 16.6 µM)	0.2 (≈ 0.531 µM)	0.78 (≈ 2.07 µM)	> 2000	0.2 (≈ 0.531 µM)	0.1 (≈ 0.266 µM)	MIC (Escherichia coli NR 2630; [23]): 0.025 µg/mL (≈ 0.0664 µM); MIC [6, 24]: 0.025 µg/mL (≈ 0.0664 µM); MIC [12, 25]: 0.05 µg/mL (≈ 0.133 µM)
CCNCC1CCN(c2c(F)cc3c(=O)c(C(=O)O)cn4c3c2OCN4C)C1 (stereo not drawn) [Example 18]	0.025 (≈ 0.064 µM)	0.39 (≈ 0.999 µM)	1.56 (≈ 4 µM)	0.39 (≈ 0.999 µM)	3.13 (≈ 8.02 µM)	0.05 (≈ 0.128 µM)	0.025 (≈ 0.064 µM)	0.013 (≈ 0.0333 µM)	0.78 (≈ 2 µM)	0.05 (≈ 0.128 µM)	0.1 (≈ 0.256 µM)	0.025 (≈ 0.064 µM)	6.25 (≈ 16 µM)	0.1 (≈ 0.256 µM)	6.25 (≈ 16 µM)	0.1 (≈ 0.256 µM)	0.39 (≈ 0.999 µM)	> 2000	0.1 (≈ 0.256 µM)	0.05 (≈ 0.128 µM)	MIC (Escherichia coli NR 2630; [23]): 0.013 µg/mL (≈ 0.0333 µM); MIC [6, 24]: 0.025 µg/mL (≈ 0.064 µM); MIC [12, 25]: 0.05 µg/mL (≈ 0.128 µM)
CC1CN(c2c(F)cc3c(=O)c(C(=O)O)cn4c3c2OCN4C)CCN1C (stereo not drawn) [Example 36, 10-(3,4-dimethyl-1-piperazinyl)-9-fluoro-3-methyl-7-oxo-2,3-dihydro-7H-pyrido[3,2,1-ij]-1,3,4-benzoxadiazine-6-carboxylic acid]	0.1 (≈ 0.266 µM)	0.39 (≈ 1.04 µM)	3.13 (≈ 8.32 µM)	0.78 (≈ 2.07 µM)	0.39 (≈ 1.04 µM)	0.05 (≈ 0.133 µM)	0.1 (≈ 0.266 µM)	0.025 (≈ 0.0664 µM)	0.78 (≈ 2.07 µM)	0.1 (≈ 0.266 µM)	0.2 (≈ 0.531 µM)	0.025 (≈ 0.0664 µM)	3.13 (≈ 8.32 µM)	0.2 (≈ 0.531 µM)	6.25 (≈ 16.6 µM)	0.2 (≈ 0.531 µM)	0.39 (≈ 1.04 µM)	> 2000	0.1 (≈ 0.266 µM)	0.1 (≈ 0.266 µM)	MIC (Escherichia coli NR 2630; [23]): 0.05 µg/mL (≈ 0.133 µM); MIC [6, 24]: 0.1 µg/mL (≈ 0.266 µM); MIC [12, 25]: 0.39 µg/mL (≈ 1.04 µM)
CN1COc2c(-n3ccnc3)c(F)cc3c(=O)c(C(=O)O)cn1c23 [Example 56, 9-fluoro-10-(1-imidazolyl)-3-methyl-7-oxo-2,3-dihydro-7H-pyrido[3,2,1-ij]-1,3,4-benzoxadiazine-6-carboxylic acid]	0.0033 (≈ 0.00999 µM)	0.39 (≈ 1.18 µM)	12.5 (≈ 37.8 µM)	1.56 (≈ 4.72 µM)	3.13 (≈ 9.48 µM)	0.1 (≈ 0.303 µM)	0.05 (≈ 0.151 µM)	0.2 (≈ 0.606 µM)	3.13 (≈ 9.48 µM)	0.1 (≈ 0.303 µM)	0.1 (≈ 0.303 µM)	0.013 (≈ 0.0394 µM)	3.13 (≈ 9.48 µM)	0.39 (≈ 1.18 µM)	6.25 (≈ 18.9 µM)	0.39 (≈ 1.18 µM)	0.78 (≈ 2.36 µM)	> 2000	0.78 (≈ 2.36 µM)	0.05 (≈ 0.151 µM)	MIC (Escherichia coli NR 2630; [23]): 0.0065 µg/mL (≈ 0.0197 µM); MIC ([6]; Staphylococcus aureus): 0.39 µg/mL (≈ 1.18 µM); MIC ([12]; Staphylococcus aureus): 0.39 µg/mL (≈ 1.18 µM)

Source: US4864023A, “Pyrido(3,2,1-IJ)-1,3,4-benzoxadiazine derivatives” (priority 1988, dated 1989)
